12 molecules from patent publication US20240287047A1, “PESTICIDALLY ACTIVE DIAZINE-AMIDE COMPOUNDS” (SYNGENTA CROP PROTECTION AG, priority 2021, published 2024) can be followed below.

Holding throughout (type): in vivo
Assay [1] has as its system Myzus persicae. Description: Example B9: Myzus persicae (green peach aphid) feeding/contact activity, sunflower leaf discs. As to conditions: foliar, 144 h, application rate of 200 ppm, 6 days after infestation. As to the method: Sunflower leaf discs were placed onto agar in a 24-well microtiter plate and sprayed with aqueous test solutions prepared from 10,000 ppm DMSO stock solutions. After drying, the leaf discs were infested with an aphid population of mixed ages. The samples were assessed for mortality 6 days after infestation.

For assay [2], the system named is Plutella xylostella. The assay can be described thus: Example B4: Plutella xylostella (diamond back moth), artificial diet, eggs. To be noted: Plutella xylostella, 192 h; application rate of 200 ppm; 8 days after infestation; read-out: control in at least one of the two categories (mortality or growth inhibition). On the procedure:
24-well microtiter plates with artificial diet were treated with aqueous test solutions prepared from 10′000 ppm DMSO stock solutions by pipetting. After drying, Plutella eggs were pipetted through a plastic stencil onto a gel blotting paper and the plate was closed with it. The samples were assessed for mortality and growth inhibition in comparison to untreated samples 8 days after infestation.

The test system of a further assay is Chilo suppressalis. The assay can be described thus: Example B1: Chilo suppressalis (striped rice stemborer), artificial diet, L2 larvae. To be noted: 144 h, application rate of 200 ppm, 6 days after infestation, read-out: control in at least one of the three categories (mortality, anti-feedant effect, or growth inhibition). On the procedure: 24-well microtiter plates with artificial diet were treated with aqueous test solutions prepared from 10,000 ppm DMSO stock solutions by pipetting. After drying, the plates were infested with L2 larvae (6-8 per well). The samples were assessed for mortality, anti-feeding effect, and growth inhibition in comparison to untreated samples 6 days after infestation. Control of Chilo suppressalis by a test sample is given when at least one of the categories mortality, anti-feedant effect, and growth inhibition is higher than the untreated sample.

The test system of another assay is Diabrotica balteata. The assay can be described thus: Example B2: Diabrotica balteata (corn root worm), maize sprouts, L2 larvae. As to conditions: for percent control (mortality or growth inhibition) at 200 ppm: Diabrotica balteata, 96 h, application rate of 200 ppm, 4 days after infestation, read-out: control in at least one of the two categories (mortality or growth inhibition). On the procedure:
Maize sprouts placed onto an agar layer in 24-well microtiter plates were treated with aqueous test solutions prepared from 10,000 ppm DMSO stock solutions by spraying. After drying, the plates were infested with L2 larvae (6 to 10 per well). The samples were assessed for mortality and growth inhibition in comparison to untreated samples 4 days after infestation.

The test system of assay [3] is Myzus persicae. Description: Example B3: Myzus persicae (green peach aphid) intrinsic activity. To be noted: 120 h, test rate of 12 ppm, 5 days after infestation. On the procedure: Test compounds prepared from 10′000 ppm DMSO stock solutions were applied by pipette into 24-well microtiter plates and mixed with sucrose solution. The plates were closed with a stretched Parafilm. A plastic stencil with 24 holes was placed onto the plate and infested pea seedlings were placed directly on the Parafilm. The infested plate was closed with a gel blotting paper and another plastic stencil and then turned upside down. The samples were assessed for mortality 5 days after infestation.

The test system of assay [4] is Spodoptera littoralis. The assay can be described thus: Example B5: Spodoptera littoralis (Egyptian cotton leaf worm), cotton leaf discs, L1 larvae. As to conditions: foliar, 72 h, application rate of 200 ppm, 3 days after infestation, read-out: control in at least one of the three categories (mortality, anti-feedant effect, or growth inhibition). On the procedure: Cotton leaf discs were placed onto agar in 24-well microtiter plates and sprayed with aqueous test solutions prepared from 10,000 ppm DMSO stock solutions. After drying the leaf discs were infested with five L1 larvae. The samples were assessed for mortality, anti-feeding effect, and growth inhibition in comparison to untreated samples 3 days after infestation. Control of Spodoptera littoralis by a test sample is given when at least one of the categories mortality, anti-feedant effect, and growth inhibition is higher than the untreated sample.

The subject of assay [5] is Myzus persicae. The assay can be described thus: Example B7: Myzus persicae (green peach aphid), 96-well sucrose solution. As to conditions: 120 h, application rate of 50 ppm, 5 days after infestation. As to the method:
Test compounds prepared from 10′000 ppm DMSO stock solutions were applied by a liquid handling robot into 96-well microtiter plates and mixed with a sucrose solution. Parafilm was stretched over the 96-well microtiter plate and a plastic stencil with 96 holes was placed onto the plate. Aphids were sieved into the wells directly onto the Parafilm. The infested plates were closed with a gel blotting card and a second plastic stencil and then turned upside down. The samples were assessed for mortality 5 days after infestation.

For assay [6], the system named is Plutella xylostella. The assay can be described thus: Example B8: Plutella xylostella (diamondback moth), 96-well artificial diet. To be noted: 216 h, application rate of 500 ppm, 9 days after infestation. As to the method:
96-well microtiter plates containing artificial diet were treated with aqueous test solutions, prepared from 10,000 ppm DMSO stock solutions, by a liquid handling robot. After drying, eggs (˜30 per well) were infested onto a netted lid which was suspended above the diet. The eggs hatch and L1 larvae move down to the diet. The samples were assessed for mortality 9 days after infestation.

Assay [7] deals with Spodoptera littoralis. Description: Example B6: Spodoptera littoralis, uptake by lettuce roots from agar. To be noted: 144 h, test rate of 12.5 ppm, 6 days after infestation, read-out: effect in at least one of the three categories (mortality, anti-feeding, or growth inhibition). From the text: Test compounds were applied by pipette from 10,000 ppm DMSO stock solutions into 24-well plates and mixed with agar. Lettuce seeds were placed onto the agar and the multi well plate was closed by another plate which contained also agar. After 7 days the compound was absorbed by the roots and the lettuce grew into the lid plate. The lettuce leaves were then cut off into the lid plate. Spodoptera eggs were pipetted through a plastic stencil onto a humid gel blotting paper and the lid plate was closed with it. The samples were assessed for mortality, anti-feedant effect and growth inhibition in comparison to untreated samples 6 days after infestation.

The structures appear in SMILES notation.

In the case of `CC(NC(=O)c1cc(F)cc(C(F)(F)F)c1)c1nccnc1-c1cnccn1` (stereo not shown) [Compound P25, 3-fluoro-N-[1-(3-pyrazin-2-ylpyrazin-2-yl)ethyl]-5-(trifluoromethyl)benzamide], the mortality at 200 ppm in the assay on Myzus persicae [1] was ≥ 80%. In addition, the percent control (mortality or growth inhibition) at 200 ppm with Plutella xylostella [2] is ≥ 80%.
Regarding `C[C@H](NC(=O)c1cc(C(F)(F)F)cc(C(C)(C)C#N)c1)c1nccnc1-c1cnccn1` [Compound E7], the percent control (mortality, anti-feedant effect or growth inhibition) at 200 ppm with Chilo suppressalis and in the assay with Spodoptera littoralis [4] was ≥ 80% throughout. Also, the percent control (mortality or growth inhibition) at 200 ppm with Diabrotica balteata and with Plutella xylostella [2] was ≥ 80% in each case. Besides, the mortality at 12 ppm with Myzus persicae [3] was ≥ 80%.
Turning to `CC(NC(=O)c1cc(I)cc(I)c1)c1nccnc1-c1cnccn1` (stereo not shown) [Compound P17, 3,5-diiodo-N-[1-(3-pyrazin-2-ylpyrazin-2-yl)ethyl]benzamide], in the assay with Myzus persicae [1], the mortality at 200 ppm is ≥ 80%. Moreover, the percent control (mortality or growth inhibition) at 200 ppm in the assay on Diabrotica balteata and in the assay on Plutella xylostella [2] was ≥ 80% in each case. Also, the percent control (mortality, anti-feedant effect or growth inhibition) at 200 ppm with Spodoptera littoralis [4] is ≥ 80%.
As for `CC(NC(=O)c1cc(OC(F)F)cc(C(F)(F)F)c1)c1nccnc1-c1cnccn1` (stereo not shown) [Compound P20], the percent control (mortality, anti-feedant effect or growth inhibition) at 200 ppm in the assay on Chilo suppressalis and in the assay with Spodoptera littoralis [4] was ≥ 80% each time. Besides, the percent control (mortality or growth inhibition) at 200 ppm in the assay with Diabrotica balteata and with Plutella xylostella [2] was ≥ 80% each time. In the assay with Myzus persicae [3], the mortality at 12 ppm is ≥ 80%.
On to `CC(NC(=O)c1cc(OC(F)(F)F)cc(C2(C#N)CC2)c1)c1nccnc1-c1cnccn1` (stereo not shown) [Compound P31], for which the percent control (mortality, anti-feedant effect or growth inhibition) at 200 ppm in the assay with Chilo suppressalis and in the assay with Spodoptera littoralis [4] was ≥ 80% each time. Also, the percent control (mortality or growth inhibition) at 200 ppm with Diabrotica balteata and in the assay with Plutella xylostella [2] was ≥ 80% each time. Further, in the assay on Myzus persicae [3], the mortality at 12 ppm is ≥ 80%.
In the case of `Cc1cc(C(=O)NC(C)c2nccnc2-c2cnccn2)cc(C(F)(F)F)c1` (stereo not shown) [Compound P18, 3-methyl-N-[1-(3-pyrazin-2-ylpyrazin-2-yl)ethyl]-5-(trifluoromethyl)benzamide], in the assay on Myzus persicae [1], the mortality at 200 ppm was ≥ 80%. The percent control (mortality, anti-feedant effect or growth inhibition) at 200 ppm in the assay with Chilo suppressalis is ≥ 80%. Moreover, in the assay with Plutella xylostella [2], the percent control (mortality or growth inhibition) at 200 ppm is ≥ 80%.
In the case of `CC(NC(=O)c1cc(C(F)(F)F)cc(C2(C#N)CC2)c1)c1nccnc1-c1cnccn1` (stereo not shown) [Compound P21], in the assay on Myzus persicae [1], the mortality at 200 ppm is ≥ 80%. For the same molecule, the percent control (mortality, anti-feedant effect or growth inhibition) at 200 ppm in the assay on Chilo suppressalis and in the assay on Spodoptera littoralis [4] was ≥ 80% throughout. For the same molecule, the mortality at 50 ppm in the assay on Diabrotica balteata (Concentration 50 ppm, Diabrotica balteata (Example B32)) amounted to 100%. Besides, the percent control (mortality or growth inhibition) at 200 ppm with Diabrotica balteata and in the assay with Plutella xylostella [2] was ≥ 80% throughout. In the assay with Myzus persicae [3], the mortality at 12 ppm is ≥ 80%.
`CC(NC(=O)c1cc(Cl)nc(C(F)(F)F)c1)c1nccnc1-c1cnccn1` (stereo not shown) [Compound P14, 2-chloro-N-[1-(3-pyrazin-2-ylpyrazin-2-yl)ethyl]-6-(trifluoromethyl)pyridine-4-carboxamide]: the mortality at 200 ppm with Myzus persicae [1] is ≥ 80%. Besides, the percent control (mortality, anti-feedant effect or growth inhibition) at 200 ppm with Chilo suppressalis and in the assay with Spodoptera littoralis [4] was ≥ 80% throughout. Besides, the percent control (mortality or growth inhibition) at 200 ppm with Diabrotica balteata and with Plutella xylostella [2] was ≥ 80% throughout.
With `C[C@H](NC(=O)c1cc(C(F)(F)F)cc(C(F)(F)F)c1)c1nccnc1-c1cnccn1` [Compound E3, N-[(1S)-1-(3-pyrazin-2-ylpyrazin-2-yl)ethyl]-3,5-bis(trifluoromethyl)benzamide], the percent control (mortality, anti-feedant effect or growth inhibition) at 200 ppm with Chilo suppressalis and in the assay with Spodoptera littoralis [4] was ≥ 80% each time. For the same molecule, the percent control (mortality or growth inhibition) at 200 ppm in the assay on Diabrotica balteata and in the assay on Plutella xylostella [2] was ≥ 80% throughout. Moreover, in the assay with Myzus persicae [5], the mortality at 50 ppm is ≥ 80%. The mortality at 500 ppm in the assay with Plutella xylostella [6] is ≥ 80%. In addition, the mortality at 12 ppm with Myzus persicae [3] was ≥ 80%. Besides, the percent effect (mortality, anti-feeding or growth inhibition) at 12.5 ppm in the assay with Spodoptera littoralis [7] is ≥ 80%.
Take `CC(NC(=O)c1cc(Cl)cc(Br)c1)c1nccnc1-c1cnccn1` (stereo not shown) [Compound P12, 3-bromo-5-chloro-N-[1-(3-pyrazin-2-ylpyrazin-2-yl)ethyl]benzamide]: the mortality at 200 ppm with Myzus persicae [1] was ≥ 80%. Besides, the percent control (mortality or growth inhibition) at 200 ppm with Diabrotica balteata and in the assay on Plutella xylostella [2] was ≥ 80% each time. The percent control (mortality, anti-feedant effect or growth inhibition) at 200 ppm in the assay with Spodoptera littoralis [4] is ≥ 80%.
Regarding `CC(NC(=O)c1cc(Cl)cc(S(C)(=O)=O)c1)c1nccnc1-c1cnccn1` (stereo not shown) [Compound P26, 3-chloro-5-methylsulfonyl-N-[1-(3-pyrazin-2-ylpyrazin-2-yl)ethyl]benzamide], the percent control (mortality, anti-feedant effect or growth inhibition) at 200 ppm with Chilo suppressalis and in the assay with Spodoptera littoralis [4] was ≥ 80% throughout. The percent control (mortality or growth inhibition) at 200 ppm in the assay on Diabrotica balteata and with Plutella xylostella [2] was ≥ 80% throughout. For the same molecule, the mortality at 12 ppm in the assay on Myzus persicae [3] is ≥ 80%.
In the case of `CC(NC(=O)c1cc(Br)cc(C(F)(F)F)c1)c1nccnc1-c1cnccn1` (stereo not shown) [Compound P7, 3-bromo-N-[1-(3-pyrazin-2-ylpyrazin-2-yl)ethyl]-5-(trifluoromethyl)benzamide], in the assay on Myzus persicae [1], the mortality at 200 ppm is ≥ 80%. Also, the percent control (mortality, anti-feedant effect or growth inhibition) at 200 ppm in the assay on Chilo suppressalis and in the assay on Spodoptera littoralis [4] was ≥ 80% throughout. Also, the percent control (mortality or growth inhibition) at 200 ppm with Diabrotica balteata and with Plutella xylostella [2] was ≥ 80% throughout.
